The source of these data is patent US11932658B2 (BRISTOL-MYERS SQUIBB COMPANY, priority 2016, dated 2024).

The target of the assay is T1, PAR4 (Homo sapiens, UniProt Q96RI0).
T1 construct: expressed in transfected cells; host or cells: HEK293 PAR4 Clone 1.2A (BMS Arctic ID 383940)
T1 sequence (Q96RI0 18-385): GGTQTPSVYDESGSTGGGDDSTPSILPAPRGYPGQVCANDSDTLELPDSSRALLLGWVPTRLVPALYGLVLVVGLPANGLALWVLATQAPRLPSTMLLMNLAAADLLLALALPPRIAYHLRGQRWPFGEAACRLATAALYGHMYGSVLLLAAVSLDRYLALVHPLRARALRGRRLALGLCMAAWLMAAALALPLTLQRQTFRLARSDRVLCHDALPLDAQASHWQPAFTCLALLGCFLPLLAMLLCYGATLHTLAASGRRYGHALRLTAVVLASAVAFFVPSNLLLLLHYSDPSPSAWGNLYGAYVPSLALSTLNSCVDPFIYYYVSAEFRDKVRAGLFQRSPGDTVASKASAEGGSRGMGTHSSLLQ
As to the kind of experiment: PAR4 FLIPR assay (antagonism of agonist peptide-induced calcium mobilization). It is filed as cell-based. The source says: The FLIPR assay is an exemplary in vitro assay for measuring the activity of the PAR4 antagonists of the present invention. In this assay, intracellular calcium mobilization is induced in PAR4 expressing cells by a PAR4 agonist and calcium mobilization is monitored.
HEK293 cells stably expressing PAR4 were generated by a standard method of transfection of human PAR4 (F2R23) cDNA expression vector and selected based on PAR4 protein expression or mRNA expression. […] These cells also express endogenous PAR1 and can elicit calcium signal upon stimulation with PAR1 agonist peptide. Therefore, the same cells were also used to determine selectivity against PAR1 and agonist activity for both receptors. Cells from HEK293 PAR4 Clone 1.2A (BMS Arctic ID 383940) were propagated and used for calcium mobilization studies.
FLIPR-based calcium mobilization assay in HEK293 cells was used to measure PAR4 antagonism, agonism, and selectivity against PAR1. The activity of the PAR4 antagonists of the present invention were tested in PAR4 expressing cells by monitoring H-Ala-Phe(4-F)-Pro-Gly-Trp-Leu-Val-Lys-Asn-Gy-NH2-induced intracellular calcium mobilization. Counter screens for agonist activity and PAR1 antagonist activity were also performed. Briefly, PAR1/PAR4-expressing HEK293 cells were grown in DMEM (Life Technology, Grand Island, NY) containing 10% heat-inactivated FBS, 1% Penicillin-Streptomycin, 10 μg/mL blasticidin, and 100 μg/mL Zeocin at 37° C. with 5% CO2. Cells were plated overnight prior to the experiment in a black 384-well Purecoat Amine clear bottom plate (Becton Dickinson Biosciences, San Jose, CA) at 10,000 cells/well in 30 μL growth medium and incubated in a humidified chamber at 37° C. with 5% CO2 overnight. Prior to compound addition, the cell medium was replaced with 40 μL of 1× calcium and magnesium-containing Hank's Balanced Saline Solution (HBSS) (with 20 mM HEPES) and 1:1000 diluted fluorescent calcium indicator (Codex Biosolutions, Gaithersburg, MD). After a 30 minute incubation period at 37° C. and a further 30 minute incubation and equilibration period at room temperature, 20 μL test compound (diluted in 1×HBSS buffer) was added at various concentrations at 0.17% dimethyl sulfoxide (DMSO) final concentration. Changes in fluorescence intensity were measured using a Functional Drug Screening System (FDSS, Hamamatsu, Japan) to determine agonist activities. The cells were then incubated for 30 minutes at room temperature followed by addition of 20 μL of agonist peptide for antagonist activity measurement. […] Compound potency was derived from 11-point concentration-response curves.
Usually IC50 stands for the concentration at which inhibition is half-maximal. With `COc1ccc(NC(=O)OC[C@H]2COc3c(cc(C)c4nc(-c5cc(C#N)cc6nc(OC)cnc56)sc34)O2)cn1` [Example 94, (R)-(2-(7-cyano-2-methoxyquinoxalin-5-yl)-4-methyl-7,8-dihydro-[1,4]dioxino[2′,3′:3,4]benzo[1,2-d]thiazol-7-yl)methyl (6-methoxypyridin-3-yl)carbamate], the IC50 worked out at 29 nM.

Regarding `COCc1cnc2c(-c3nc4cc5c(cc4s3)OCO5)cc(C)cc2n1` [Example 143, 6-(2-(methoxymethyl)-7-methylquinoxalin-5-yl)-[1,3]dioxolo[4′,5′:4,5]benzo[1,2-d]thiazole], the IC50 is 5.5 nM.

As to `COc1cnc2c(-c3nc4cc(F)c5c(c4s3)C[C@@H](CNC(=O)Oc3ccc(Cl)cc3)O5)cc(C)cc2n1` [Example 214, (S)-4-chlorophenyl ((5-fluoro-2-(2-methoxy-7-methylquinoxalin-5-yl)-7,8-dihydrobenzofuro[5,4-d]thiazol-7-yl)methyl)carbamate], the IC50 came to 26 nM.

On to `COc1cnc2c(-c3nc4ccc5c(c4s3)OC[C@H](COC(=O)Nc3ccc(C)nc3)O5)cc(C)cc2n1` [Example 102, (R)-(2-(2-methoxy-7-methylquinoxalin-5-yl)-7,8-dihydro-[1,4]dioxino[2′,3′:3,4]benzo[1,2-d]thiazol-7-yl)methyl (6-methylpyridin-3-yl)carbamate], for which the IC50 is 2.3 nM.

As for `COc1cnc2c(-c3nc4cc(F)c5c(c4s3)C[C@H](COC(=O)Nc3ccc(OCC(F)(F)CO)nc3)O5)cc(C)cc2n1` [Example 166, (R)-(5-fluoro-2-(2-methoxy-7-methylquinoxalin-5-yl)-7,8-dihydrobenzofuro[5,4-d]thiazo 1-7-yl)methyl (6-(2,2-difluoro-3-hydroxypropoxy)pyridin-3-yl)carbamate], the IC50 is 1.1 nM.

As to `COc1cnc2c(-c3nc4c(C)cc5c(c4s3)OCC(COC(=O)Nc3cccnc3)O5)cc(CO)cc2n1` (centres unmarked) [Example 90, (2-(7-(hydroxymethyl)-2-methoxyquinoxalin-5-yl)-4-methyl-7,8-dihydro-[1,4]dioxino[2′,3′:3,4]benzo[1,2-d]thiazol-7-yl)methyl pyridin-3-ylcarbamate], the IC50 was 2.7 nM.

As to `COc1cnc2c(-c3nc4c(Cl)cc5c(c4s3)OC[C@H](COC(=O)Nc3cccnc3)O5)cc(C)cc2n1` [Example 31, (R)-(4-chloro-2-(2-methoxy-7-methylquinoxalin-5-yl)-7,8-dihydro-[1,4]dioxino[2′,3′:3,4]benzo[1,2-d]thiazol-7-yl)methyl pyridin-3-ylcarbamate], the IC50 was determined as 0.9 nM.

As for `COc1cnc2c(-c3nc4ccc5c(c4s3)C[C@@](C)(CO)O5)cc(C)cc2n1` (single isomer, unassigned) [Example 187], the IC50 was 1.7 nM.

`COc1cnc2c(-c3nc4cc(F)c5c(c4s3)C[C@H](COC(=O)Nc3cccc(C(N)=O)c3)O5)cc(Cl)cc2c1` [Example 284, (R)-(2-(6-chloro-3-methoxyquinolin-8-yl)-5-fluoro-7,8-dihydrobenzofuro[5,4-d]thiazol-7-yl)methyl (3-carbamoylphenyl)carbamate]: the half-maximal inhibitory concentration (IC50) was found to be 2.8 nM.

`COc1cnc2c(-c3nc4cc(F)c5c(c4s3)[C@H](C)[C@@H](CO)O5)cc(Cl)cc2n1` [Example 253, ((7S,8S)-2-(7-chloro-2-methoxyquinoxalin-5-yl)-5-fluoro-8-methyl-7,8-dihydrobenzofuro [5,4-d]thiazol-7-yl)methanol]: the IC50 was 2.7 nM.

As for `COc1cnc2c(-c3cc4c5c(ccc4o3)O[C@@H](COC(=O)Nc3ccc(C)nc3)CO5)cc(C)cc2n1` [Example 11, (R)-(8-(2-methoxy-7-methylquinoxalin-5-yl)-2,3-dihydro-[1,4]dioxino[2,3-e]benzofuran-3-yl)methyl (6-methylpyridin-3-yl)carbamate], the IC50 was determined as 1.3 nM.

For the compound `COc1cnc2c(-c3nc4cc(F)c5c(c4s3)C[C@@](C)(COC(=O)Nc3cccc(C#N)c3)O5)cc(C)cc2n1` [Example 176, (S)-(5-fluoro-2-(2-methoxy-7-methylquinoxalin-5-yl)-7-methyl-7,8-dihydrobenzofuro[5,4-d]thiazol-7-yl)methyl (3-cyanophenyl)carbamate], the IC50 was determined as 6.1 nM.

As to `COc1cnc2c(-c3nc4c(C)cc5c(c4s3)OCC(COC(=O)Nc3ccc(-c4cccs4)nc3)O5)cc(C)cc2n1` (centres unmarked) [Example 127, (2-(2-methoxy-7-methylquinoxalin-5-yl)-4-methyl-7,8-dihydro-[1,4]dioxino[2′,3′:3,4]benzo[1,2-d]thiazol-7-yl)methyl (6-(thiophen-2-yl)pyridin-3-yl) carbamate], the IC50 worked out at 130 nM.

As for `COc1cnc2c(-c3nc4cc(F)c5c(c4s3)[C@@H](C)[C@H](CO)O5)cc(C)cc2n1` (single isomer, unassigned) [Example 201], the IC50 was determined as 7.8 nM.

Consider `COc1cnc2c(-c3nc4ccc5c(c4s3)C[C@](C)(COC(=O)Nc3cnc(C)nc3)O5)cc(C)cc2n1` [Example 194, (R)-(2-(2-methoxy-7-methylquinoxalin-5-yl)-7-methyl-7,8-dihydrobenzofuro[5,4-d]thiazol-7-yl)methyl (2-methylpyrimidin-5-yl)carbamate], for which the IC50 turned out to be 2.5 nM.

`COc1cnc2c(-c3nc4c(Cl)cc5c(c4s3)OC[C@H](COC(=O)Nc3ccc4[nH]c(=O)oc4c3)O5)cc(C)cc2n1` [Example 66, (R)-(4-chloro-2-(2-methoxy-7-methylquinoxalin-5-yl)-7,8-dihydro-[1,4]dioxino[2′,3′:3,4]benzo[1,2-d]thiazol-7-yl)methyl (2-oxo-2,3-dihydrobenzo[d]oxazol-6-yl)carbamate]: the IC50 was 1.5 nM.

Turning to `COc1cnc2c(-c3nc4c(C)cc5c(c4s3)OCC(COC(=O)Nc3cnc4c(c3)ncn4C)O5)cc(C)cc2n1` (centres unmarked) [Example 129, (2-(2-methoxy-7-methylquinoxalin-5-yl)-4-methyl-7,8-dihydro-[1,4]dioxino[2′,3′:3,4]benzo[1,2-d]thiazol-7-yl)methyl (3-methyl-3H-imidazo [4,5-b]pyridin-6-yl)carbamate], the IC50 was 1.6 nM.

For the compound `COc1cnc2c(-c3nc4ccc5c(c4s3)OC[C@H](COC(=O)Nc3cnc4[nH]ccc4c3)O5)cc(C)cc2n1` [Example 107, (R)-(2-(2-methoxy-7-methylquinoxalin-5-yl)-7,8-dihydro-[1,4]dioxino[2′,3′:3,4]benzo [1,2-d]thiazol-7-yl)methyl 1H-pyrrolo[2,3-b]pyridin-5-ylcarbamate], the IC50 turned out to be 1.7 nM.

As to `C=Cc1ccc(NC(=O)OC[C@H]2COc3c(ccc4nc(-c5cc(C)cc6nc(OC)cnc56)sc34)O2)cn1` [Example 110, (R)-(2-(2-methoxy-7-methylquinoxalin-5-yl)-7,8-dihydro-[1,4]dioxino[2′,3′:3,4]benzo[1,2-d]thiazol-7-yl)methyl (6-vinylpyridin-3-yl)carbamate], the IC50 worked out at 1.6 nM.

Take `COc1cnc2c(-c3nc4cc(F)c5c(c4s3)C[C@](C)(CO)O5)cc(C)cc2n1` [Example 181, (R)-(5-fluoro-2-(2-methoxy-7-methylquinoxalin-5-yl)-7-methyl-7,8-dihydrobenzofuro[5,4-d]thiazol-7-yl)methanol]: the IC50 amounted to 52 nM.

As for `COc1cnc2c(-c3nc4cc(F)c5c(c4s3)C[C@H](COC(=O)Nc3cncnc3)O5)cc(C)cc2n1` [Example 185], the IC50 is 6.9 nM.

Take `COc1cnc2c(-c3nc4c(F)cc5c(c4s3)OC[C@H](COC(=O)Nc3ccc(F)nc3)O5)cc(C)cc2n1` [Example 71, (R)-(4-fluoro-2-(2-methoxy-7-methylquinoxalin-5-yl)-7,8-dihydro-[1,4]dioxino[2′,3′:3,4]benzo[1,2-d]thiazol-7-yl)methyl (6-fluoropyridin-3-yl)carbamate]: the IC50 amounted to 2.9 nM.

Turning to `COc1cnc2c(-c3nc4ccc5c(c4s3)CC(C)(C)O5)cc(C)cc2n1` [Example 186, 2-(2-methoxy-7-methylquinoxalin-5-yl)-7,7-dimethyl-7,8-dihydrobenzofuro[5,4-d]thiazole], the IC50 came to 8.8 nM.
